Assays:
Human recombinant PARP1 = Human recombinant PARP1 (Homo sapiens, UniProt P09874); test: RBC HotSpot PARP1 assay (radioisotope-based filter binding); assay type: biochemical; details: Table 9; read-out: PARP1
Method: (§1) The following methods are for evaluating the in vitro biology properties of the test articles. • a. RBC HotSpot Poly(ADP-ribose) Polymerases 1 (PARP1) and Poly(ADP-ribose) Polymerases 2 (PARP2) Assays: The assay was conducted at Reaction Biology Corporation (RBC; Malvern, PA). The assay principle is radioisotope-based filter binding assay where incorporation of radioisotope-labeled NAD^+ into the substrate captured on filter is detected after washout free NAD^+. Data were analyzed using Excel and GraphPad Prism software for IC50 curve fits. Each assay was conducted with PJ34 as a positive control. PARP1 assay: Human recombinant PARP1 at a final concentration of 2.5 nM was combined with histone H4 (20 μM) and test articles at various concentrations in reaction buffer (50 mM Tris-HCL, pH 8.0, 50 mM NaCl, 10 mM MgCl2, 1 mM DTT, 1% DMSO, and 20 μg/mL activated DNA). The solution was inoculated for 20 min at room temperature and the reaction initiated by adding [adenylate-^32P]-Nicotinamide Adenine Dinucleotide, ^32P-NAD^+ at a final concentration of 10 μM. After incubation for 2 hrs at room temperature, the reaction mixture was filtered and washed with 0.75% phosphoric acid for radioactivity detection. • ii. PARP2 assay: Human recombinant PARP2 at a final concentration of 2.5 nM was combined with histone H3 (20 μM) and test articles at various concentrations in reaction buffer (50 mM Tris-HCL, pH 8.0, 50 mM NaCl, 10 mM MgCl2, 1 mM DTT, 1% DMSO, and 20 μg/mL activated DNA). The solution was inoculated for 20 min at room temperature and the reaction was initiated by adding [adenylate-^32P]-Nicotinamide Adenine Dinucleotide, ^32P-NAD^+ at a final concentration of 10 μM. After incubation for 2 hrs at room temperature, the reaction mixture was filtered and washed with 0.75% phosphoric acid for radioactivity detection. • b. AR binding assay: AR in LNCaP cytosol was used for determining the binding affinity of test articles and the reference compound—progesterone (Sigma, Cat: E2785, St. Louis, MO). IC50 s were determined using 8 concentrations/compound. Cytosol is plated at 200 μg/well (100 μL) into a 96-well conical polypropylene plate (Agilent, Cat: 5042-1385, Santa Clara, CA) and mixed with 3 μL of test compound. After adding 100 μL of ^3H-methyltrienolone (PerkinElmer, Cat: NET590250UC, San Jose, CA), the plate was sealed and shaken at 300 rpm at 4° C. for 24 hours. Post incubation, 100 μL of radioligand adsorption buffer containing 10 mM Tris-HCl, pH 7.4; 1.5 mM EDTA; 1 mM DTT; 0.25% charcoal; 0.0025% dextran was added to individual wells. Plate was shaken for 15 min at 4° C. followed by centrifugation at 3000 rpm for 30 min at 4° C. 150 μL of supernatant is transferred into scint-tube (PerkinElmer, Cat: 6000192) and mixed with 2 mL of Ultima Gold Cocktail (PerkinElmer, Cat: 6013329). Radioactivity is counted using a TriCarb 2910 TR scintillation counter (PerkinElmer). Inhibition of the radioactivity by test articles was calculated using the equation below: % Inhibition=(1−(Assay well−Average_LC)/(Average_HC−Average_LC))×100%. • IC50 values (Table 6) were calculated and graphed using the model “log(inhibitor) vs. response—Variable slope” included in GraphPad Prism 5 (San Diego, CA). The Ki values were further calculated using the equation below where [L] is the radioligand concentration (1 nM) used in this study. Kd value was 0.332 nM. Ki=IC50/(1+[L]/Kd) • c. AR transactivation: Human AR cloned into a CMV vector backbone is used for the transactivation study. HEK-293 cells are plated at 80,000 cells per well of a 24 well plate in DME+5% csFBS. Twenty four hours later, the cells are transfected using Lipofectamine (Invitrogen, Carlsbad, CA) with 0.25 μg GRE-LUC, 0.01 μg CMV-LUC (renilla luciferase) and 25 ng of the AR in OPTIMEM medium. The cells are treated 24 hrs after transfection with various ligands (10^−12 to 10^−5 M final concentrations) and luciferase assay performed 48 hours after transfection. […]

Human recombinant PARP2 = Human recombinant PARP2 (Homo sapiens, UniProt Q9UGN5); test: RBC HotSpot PARP2 assay (radioisotope-based filter binding); assay type: biochemical; details: Table 9; read-out: PARP2
Chain of Human recombinant PARP2 (Q9UGN5 whole entry): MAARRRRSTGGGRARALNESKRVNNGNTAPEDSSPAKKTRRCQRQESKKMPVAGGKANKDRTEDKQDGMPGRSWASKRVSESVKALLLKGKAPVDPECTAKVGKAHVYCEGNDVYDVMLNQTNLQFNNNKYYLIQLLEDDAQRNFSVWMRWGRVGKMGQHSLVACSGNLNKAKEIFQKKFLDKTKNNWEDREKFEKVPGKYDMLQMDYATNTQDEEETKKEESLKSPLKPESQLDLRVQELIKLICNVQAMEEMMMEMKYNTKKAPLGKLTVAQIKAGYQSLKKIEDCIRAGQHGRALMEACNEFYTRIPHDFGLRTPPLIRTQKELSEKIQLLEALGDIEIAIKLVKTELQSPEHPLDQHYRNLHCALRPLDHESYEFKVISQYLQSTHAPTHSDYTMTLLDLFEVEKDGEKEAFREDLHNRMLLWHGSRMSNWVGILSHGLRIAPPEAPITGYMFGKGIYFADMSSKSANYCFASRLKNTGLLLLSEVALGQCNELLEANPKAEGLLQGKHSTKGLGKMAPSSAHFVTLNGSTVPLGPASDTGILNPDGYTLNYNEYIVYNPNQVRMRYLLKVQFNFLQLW
Method: as §1

[1] = biological target: T1, Progesterone Receptor (PR)-LBD (Homo sapiens, UniProt P06401); test: PR coactivator antagonist assay; assay type: biochemical; details: Table 8; 10 nM progesterone; read-out: PR antagonism
T1 sequence (P06401 679-913 limits assumed): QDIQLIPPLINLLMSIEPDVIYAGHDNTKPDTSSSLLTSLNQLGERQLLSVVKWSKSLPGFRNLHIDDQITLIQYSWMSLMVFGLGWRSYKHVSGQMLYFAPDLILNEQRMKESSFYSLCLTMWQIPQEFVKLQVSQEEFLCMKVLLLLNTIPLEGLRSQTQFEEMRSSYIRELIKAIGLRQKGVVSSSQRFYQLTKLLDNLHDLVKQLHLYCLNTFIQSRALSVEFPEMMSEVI
Method: PR coactivator antagonist assay: Test compound (Top dose 10 μM, 4 fold serial dilution, 8 point dose response) and/or vehicle was incubated with the 2.5 nM Progesterone Receptor (PR)-LBD and coactivator peptide for 30 minutes at RT. Determination of the amount of complex formed is read spectrofluorimetrically (excitation: 337 nm, emission: 520/490 nm). Test compound-induced inhibition of 10 nM progesterone-induced fluorescence response by 50 percent or more (>50%) indicates receptor antagonist activity.

T47D cells = test: Cell viability assay (CellTiterGlo, 6 days) T47D; assay type: cell-based; details: Homo sapiens, 144 h, Table 8
Method: Cell viability assay: LNCap, 22Rv1, and T47D cells were seeded at a density of 1500-2000 cells/well in 96 well plates, and a ‘T0’ (timepoint 0) was included along with the assay plate. The plates were then incubated at 37° C., 5% CO2 in a cell culture incubator overnight. On the next day, the ‘T0’ plate was assayed using CellTiterGlo (Promega, Inc) according to the manufacturer's instructions. The appropriate compounds were diluted in DMSO and added to the assay plate (final DMSO concentration of 0.2%) on the next day. The assay plates were incubated for 6 days at 37° C., 5% CO2. After the incubation period, the plates were assayed using CellTiterGlo (Promega, Inc) according to the manufacturer's instructions and luminescence was read on the EnVision plate reader. Inhibition the tested compounds was determined by the following formula: Inhibition rate (%)=(1−(RLU compound−RLU day0)/(RLU control−RLU day0))*100%. GraphPadPrism was used to analyze the data and determine absolute IC50 values.

Chain of Human recombinant PARP1 (P09874 whole entry): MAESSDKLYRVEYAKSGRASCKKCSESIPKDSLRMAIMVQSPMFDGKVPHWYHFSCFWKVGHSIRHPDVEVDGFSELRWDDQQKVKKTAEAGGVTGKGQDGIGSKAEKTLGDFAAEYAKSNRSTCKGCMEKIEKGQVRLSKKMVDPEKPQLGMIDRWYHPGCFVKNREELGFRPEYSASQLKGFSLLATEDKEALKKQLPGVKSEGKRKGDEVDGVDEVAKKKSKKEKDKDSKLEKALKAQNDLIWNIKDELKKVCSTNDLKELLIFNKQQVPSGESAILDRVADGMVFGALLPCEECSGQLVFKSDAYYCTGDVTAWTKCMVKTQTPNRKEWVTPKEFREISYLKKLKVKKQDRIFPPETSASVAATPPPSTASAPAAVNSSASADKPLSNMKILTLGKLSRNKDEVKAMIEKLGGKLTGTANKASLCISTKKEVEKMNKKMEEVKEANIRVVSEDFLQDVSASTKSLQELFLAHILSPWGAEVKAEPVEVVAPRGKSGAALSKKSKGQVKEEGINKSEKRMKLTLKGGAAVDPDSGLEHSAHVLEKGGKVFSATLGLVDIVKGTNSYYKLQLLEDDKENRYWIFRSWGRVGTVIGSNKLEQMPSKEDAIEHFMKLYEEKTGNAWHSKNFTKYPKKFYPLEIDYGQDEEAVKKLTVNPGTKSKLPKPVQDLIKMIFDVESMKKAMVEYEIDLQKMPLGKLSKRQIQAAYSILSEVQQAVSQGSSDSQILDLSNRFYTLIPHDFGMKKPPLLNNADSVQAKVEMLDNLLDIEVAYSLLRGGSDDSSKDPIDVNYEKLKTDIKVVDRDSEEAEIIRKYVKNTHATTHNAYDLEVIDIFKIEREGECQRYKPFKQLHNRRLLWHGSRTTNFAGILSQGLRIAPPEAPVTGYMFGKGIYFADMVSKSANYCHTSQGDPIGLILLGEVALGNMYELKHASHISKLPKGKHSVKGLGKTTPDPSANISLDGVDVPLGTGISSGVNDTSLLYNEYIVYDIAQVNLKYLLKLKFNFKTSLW

SMILES: CC#C[C@]1(O)CC[C@H]2[C@@H]3CCC4=CC(=O)CCC4=C3[C@@H](c3ccc(N(C)CCCCCC(=O)NCCOCCOCC(=O)N4CCN(C(=O)c5cc(Cc6n[nH]c(=O)c7ccccc67)ccc5F)CC4)cc3)C[C@@]21C [Compound 1429, N-(2-(2-(2-(4-(2-fluoro-5-((4-oxo-3,4-dihydrophthalazin-1-yl)methyl)benzoyl)piperazin-1-yl)-2-oxoethoxy)ethoxy)ethyl)-6-((4-((8S,11R,13S,14S,17S)-17-hydroxy-13-methyl-3-oxo-17-(prop-1-ynyl)-2,3,6,7,8,11,12,13,14,15,16,17-dodecahydro-1H-cyclopenta[a]phenanthren-11-yl)phenyl)(methyl)amino)hexanamide]
- IC50 (Human recombinant PARP1): < 1 nM
- IC50 (Human recombinant PARP2): < 1 nM
- IC50 [1]: < 10 nM
- IC50 (T47D cells): > 10000 nM
